{
  "source": "patent US9283222B2",
  "about": "(priority 2006, dated 2016)",
  "data": [
    {"target": "Recombinant Human Poly(ADP-Ribose) Polymerase (PARP), PARP-1 (Homo sapiens (Human), UniProt P09874)", "sequence (P09874 whole entry)": "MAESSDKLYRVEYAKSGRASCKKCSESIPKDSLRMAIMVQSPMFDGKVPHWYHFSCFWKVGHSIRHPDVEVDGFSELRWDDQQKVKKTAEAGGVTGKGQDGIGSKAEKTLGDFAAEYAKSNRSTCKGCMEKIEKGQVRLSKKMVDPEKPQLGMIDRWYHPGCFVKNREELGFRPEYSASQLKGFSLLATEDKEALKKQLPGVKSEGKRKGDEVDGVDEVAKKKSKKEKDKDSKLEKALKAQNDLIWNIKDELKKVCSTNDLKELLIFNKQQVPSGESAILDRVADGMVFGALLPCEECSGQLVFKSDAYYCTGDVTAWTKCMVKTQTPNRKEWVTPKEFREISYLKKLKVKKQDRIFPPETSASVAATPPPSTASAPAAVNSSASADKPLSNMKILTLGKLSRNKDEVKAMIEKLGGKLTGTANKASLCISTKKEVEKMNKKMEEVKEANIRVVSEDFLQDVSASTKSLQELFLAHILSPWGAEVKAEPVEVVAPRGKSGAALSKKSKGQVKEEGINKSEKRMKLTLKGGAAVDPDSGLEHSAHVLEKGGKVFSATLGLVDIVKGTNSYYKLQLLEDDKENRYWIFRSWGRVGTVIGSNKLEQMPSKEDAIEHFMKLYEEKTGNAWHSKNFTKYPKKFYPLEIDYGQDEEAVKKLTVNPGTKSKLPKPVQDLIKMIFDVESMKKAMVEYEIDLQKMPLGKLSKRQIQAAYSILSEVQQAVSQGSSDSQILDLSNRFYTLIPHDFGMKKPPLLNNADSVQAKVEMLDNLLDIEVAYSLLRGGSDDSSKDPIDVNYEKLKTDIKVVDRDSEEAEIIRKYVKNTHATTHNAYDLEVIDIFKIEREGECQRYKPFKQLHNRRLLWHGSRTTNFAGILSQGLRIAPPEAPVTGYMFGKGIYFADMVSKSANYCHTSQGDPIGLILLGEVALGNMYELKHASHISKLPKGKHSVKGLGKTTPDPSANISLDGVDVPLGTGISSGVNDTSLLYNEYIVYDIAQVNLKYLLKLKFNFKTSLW", "details": "read-out: PARP-1 (Ki)", "units": {"Ki": "nM"}, "values": [
      {"smiles": "O=C(c1cc(Cc2n[nH]c(=O)c3c2NCCC3)ccc1F)N1CCN(C(=O)N2CCOCC2)CC1", "note": "[Example 473, 8-(4-fluoro-3-((4-(morpholin-4-ylcarbonyl)piperazin-1-yl)carbonyl)benzyl)-2,3,4,6-tetrahydropyrido(2,3-d)pyridazin-5(1H)-one]", "Ki": 2}
    ]},
    {"target": "Recombinant Human Poly(ADP-Ribose) Polymerase (PARP), PARP-1 (Homo sapiens (Human), UniProt P09874)", "details": "read-out: PARP-1 (Ki); Table 1; text calls the values EC50s", "units": {"Ki": "nM"}, "values": [
      {"smiles": "O=c1[nH]nc(Cc2ccc(F)c(Cl)c2)c2c1CCCN2", "note": "[Example 450, 8-(3-chloro-4-fluorobenzyl)-2,3,4,6-tetrahydropyrido(2,3-d)pyridazin-5(1H)-one]", "Ki": 122},
      {"smiles": "CC(c1ccc(F)c(N2CCC2=O)c1)c1n[nH]c(=O)c2c1CCCC2", "note": "(stereo not drawn) [Example 451, 4-(1-(4-fluoro-3-(2-oxoazetidin-1-yl)phenyl)ethyl)-5,6,7,8-tetrahydrophthalazin-1(2H)-one]", "Ki": 56},
      {"smiles": "O=C(CN1CCCC1=O)Nc1cc(Cc2n[nH]c(=O)c3c2CCCC3)ccc1F", "note": "[Example 453, N-(2-fluoro-5-((4-oxo-3,4,5,6,7,8-hexahydrophthalazin-1-yl)methyl)phenyl)-2-(2-oxopyrrolidin-1-yl)acetamide]", "Ki": 14},
      {"smiles": "Cc1c(C(=O)Nc2cc(Cc3n[nH]c(=O)c4c3CCCC4)ccc2F)cnn1-c1ccccc1", "note": "[Example 454, N-(2-fluoro-5-((4-oxo-3,4,5,6,7,8-hexahydrophthalazin-1-yl)methyl)phenyl)-5-methyl-1-phenyl-1H-pyrazole-4-carboxamide]", "Ki": 16},
      {"smiles": "CC(=O)CCCC(=O)Nc1cc(Cc2n[nH]c(=O)c3c2CCCC3)ccc1F", "note": "[Example 455, N-(2-fluoro-5-((4-oxo-3,4,5,6,7,8-hexahydrophthalazin-1-yl)methyl)phenyl)-5-oxohexanamide]", "Ki": 1.3},
      {"smiles": "COCCC(=O)Nc1cc(Cc2n[nH]c(=O)c3c2CCCC3)ccc1F", "note": "[Example 456, N-(2-fluoro-5-((4-oxo-3,4,5,6,7,8-hexahydrophthalazin-1-yl)methyl)phenyl)-3-methoxypropanamide]", "Ki": 5},
      {"smiles": "O=C(CCCC(=O)Nc1cc(Cc2n[nH]c(=O)c3c2CCCC3)ccc1F)Nc1ccccc1", "note": "[Example 457, N-(2-fluoro-5-((4-oxo-3,4,5,6,7,8-hexahydrophthalazin-1-yl)methyl)phenyl)-N′-phenylpentanediamide]", "Ki": 0.7},
      {"smiles": "Nc1cc(Cc2n[nH]c(=O)c3cccnc23)ccc1F", "note": "[Example 463, 8-(3-amino-4-fluorobenzyl)pyrido(2,3-d)pyridazin-5(6H)-one]", "Ki": 1880},
      {"smiles": "COC(=O)c1cc(Cc2n[nH]c(=O)c3c2NCCC3)ccc1F", "note": "[Example 465, methyl 2-fluoro-5-((5-oxo-1,2,3,4,5,6-hexahydropyrido(2,3-d)pyridazin-8-yl)methyl)benzoate]", "Ki": 3.5},
      {"smiles": "O=C(O)c1cc(Cc2n[nH]c(=O)c3c2NCCC3)ccc1F", "note": "[Example 468, 2-fluoro-5-((5-oxo-1,2,3,4,5,6-hexahydropyrido(2,3-d)pyridazin-8-yl)methyl)benzoic acid]", "Ki": 249},
      {"smiles": "O=C(NC1CCC1)c1cc(Cc2n[nH]c(=O)c3c2NCCC3)ccc1F", "note": "[Example 471, N-cyclobutyl-2-fluoro-5-((5-oxo-1,2,3,4,5,6-hexahydropyrido(2,3-d)pyridazin-8-yl)methyl)benzamide]", "Ki": 51},
      {"smiles": "O=C(CCOc1ccccc1)Nc1cc(Cc2n[nH]c(=O)c3c2NCCC3)ccc1F", "note": "[Example 478, N-(2-fluoro-5-((5-oxo-1,2,3,4,5,6-hexahydropyrido(2,3-d)pyridazin-8-yl)methyl)phenyl)-3-phenoxypropanamide]", "Ki": 2},
      {"smiles": "O=C(COc1ccc(OCc2ccccc2)cc1)Nc1cc(Cc2n[nH]c(=O)c3c2NCCC3)ccc1F", "note": "[Example 481, 2-(4-(benzyloxy)phenoxy)-N-(2-fluoro-5-((5-oxo-1,2,3,4,5,6-hexahydropyrido(2,3-d)pyridazin-8-yl)methyl)phenyl)acetamide]", "Ki": 12},
      {"smiles": "CCOCCN1CCN(C(=O)c2cc(Cc3n[nH]c(=O)c4c3NCCC4)ccc2F)CC1", "note": "[Example 485, 8-(3-((4-(2-ethoxyethyl)piperazin-1-yl)carbonyl)-4-fluorobenzyl)-2,3,4,6-tetrahydropyrido(2,3-d)pyridazin-5(1H)-one]", "Ki": 14}
    ]}
  ]
}
